Test results from the NIST ThermoML archive (doi:10.1021/je400821q).
± gives the expanded uncertainty stated by the source.

Experiment: osmotic coefficient (dimensionless); mn = molality of the nth substance listed, in mol/kg
Settings: 308.15 K, Liquid, Osmomat K-7000

CCCC[N+](CCCC)(CCCC)CCCC.[Br-] [tetrabutylammonium bromide] + O
Settings	osmotic coefficient
m1 = 0.00627	0.9763 ± 0.0013
m1 = 0.0125	0.9517 ± 0.002
m1 = 0.02562	0.9279 ± 0.0028
m1 = 0.03159	0.9191 ± 0.0031
m1 = 0.03774	0.9126 ± 0.0034
m1 = 0.04597	0.9006 ± 0.0039
m1 = 0.06502	0.8805 ± 0.0046
m1 = 0.07496	0.8725 ± 0.0049
m1 = 0.113	0.8403 ± 0.0062
m1 = 0.1459	0.8228 ± 0.0069
m1 = 0.1775	0.8131 ± 0.0072
m1 = 0.2126	0.8046 ± 0.0076
m1 = 0.2558	0.794 ± 0.008
m1 = 0.3305	0.785 ± 0.0083

CC[N+](CC)(CC)CC.[Br-] [tetraethylammonium bromide] + O
Settings	osmotic coefficient
m1 = 0.00966	0.9933 ± 0.001
m1 = 0.01943	0.9737 ± 0.0014
m1 = 0.03868	0.9492 ± 0.0021
m1 = 0.0491	0.9327 ± 0.0026
m1 = 0.05837	0.9256 ± 0.0029
m1 = 0.07077	0.916 ± 0.0033
m1 = 0.09678	0.8994 ± 0.0039
m1 = 0.1197	0.8851 ± 0.0045
m1 = 0.1561	0.869 ± 0.0051
m1 = 0.2146	0.85 ± 0.0058
m1 = 0.2799	0.8376 ± 0.0063
m1 = 0.3398	0.8275 ± 0.0067

C[N+](C)(C)C.[Br-] [tetramethylammonium bromide] + O
Settings	osmotic coefficient
m1 = 0.01285	0.9931 ± 0.001
m1 = 0.02557	0.9742 ± 0.0014
m1 = 0.03787	0.9583 ± 0.0018
m1 = 0.0549	0.948 ± 0.0021
m1 = 0.06504	0.94 ± 0.0023
m1 = 0.07726	0.9311 ± 0.0027
m1 = 0.0956	0.9195 ± 0.0031
m1 = 0.1326	0.8936 ± 0.0041
m1 = 0.1678	0.8796 ± 0.0047
m1 = 0.203	0.8696 ± 0.0051
m1 = 0.2383	0.8623 ± 0.0053
m1 = 0.3083	0.8489 ± 0.0059

C[N+](C)(C)C.[Cl-] [tetramethylammonium chloride] + O
Settings	osmotic coefficient
m1 = 0.01861	0.9937 ± 0.001
m1 = 0.03679	0.9747 ± 0.0013
m1 = 0.05507	0.958 ± 0.0018
m1 = 0.07403	0.9487 ± 0.0021
m1 = 0.09359	0.9393 ± 0.0024
m1 = 0.1112	0.9297 ± 0.0027
m1 = 0.1397	0.9173 ± 0.0032
m1 = 0.1877	0.8997 ± 0.0039
m1 = 0.2352	0.8878 ± 0.0043
m1 = 0.284	0.8757 ± 0.0048
m1 = 0.333	0.8675 ± 0.0051

C[N+](C)(C)C.[I-] [tetramethylammonium iodide] + O
Settings	osmotic coefficient
m1 = 0.01012	0.9766 ± 0.0013
m1 = 0.02006	0.9573 ± 0.0018
m1 = 0.0301	0.9365 ± 0.0025
m1 = 0.04063	0.9245 ± 0.0029
m1 = 0.04966	0.9108 ± 0.0035
m1 = 0.05912	0.8995 ± 0.0039
m1 = 0.07116	0.883 ± 0.0045
m1 = 0.1026	0.8569 ± 0.0055
m1 = 0.1286	0.8396 ± 0.0062
m1 = 0.1527	0.8277 ± 0.0067
m1 = 0.1802	0.8188 ± 0.007
